Tested on: Unknown protein yeast genes
Experiment: DNA chip mRNA expression in yeast, unknown protein yeast genes (Table 1)
Assay type: cell-based, Saccharomyces cerevisiae S288C
Experimental: Yeast (Saccharomyces cerevisiae S288C (α SUC2mal mel gap2 CUP1)) were incubated at 25° C. on YPD medium (yeast extract 1%, polypepton 2%, glucose 2%). One of toxic chemical substances was added to the cells at logarithmic growth phase, and the cells were further incubated for two hours. Cells were cultured without any chemical substance in the same condition, and were used as control. Concentrations of the chemical substances were defined to inhibit the growth of the yeast but not lead to death.
After completion of the incubation, the culture was centrifuged to collect the cells. To the cells, sodium acetate buffer (50 mM sodium acetate, 10 mM EDTA, 1% SDS) was added, and the mixture was shaken at 65° C. for five minutes, followed by returning to room temperature, and obtaining the supernatant, of which the procedures were repeated two times. To the supernatant, ½ amount of a solution of phenol/chloroform was added, and the mixture was centrifuged to give a supernatant, which was added with an equal amount of chloroform, and the mixture was centrifuged to give a supernatant. To the supernatant, an equal amount of isopropanol containing 0.3 M sodium acetate was added, and the mixture was allowed to stand at room temperature for 30 minutes, after which the mixture was centrifuged to give a sediment of the whole RNAs. Seventy % ethanol was added to the sediment, and the mixture was again centrifuged to give a sediment, which was then dried and dissolved in water. mRNA was isolated from the whole RNAs as followings. In view of the fact that a poly A chain is attached to the 3′ terminus of mRNA, a polynucleotide having a poly T structure which was immobilized on the surface of latex beads was used to trap the mRNA, and then the mRNA was washed and eluted with spine column (Oligotex-dT30<Super>mRNA Purification Kit, Takara). Reverse transcription of the mRNA was conducted with a reverse transcriptase (Super Script II Reverse Transcriptase; catalogue No. 18064-014, GibcoBRL) using fluorescence-labeled nucleotides to give cDNAs that were introduced with Cy3-dUTP or Cy5-dUTP during the reverse transcription.
The labeled cDNAs were dissolved in TE buffer (10mM Tris-HCl/1 mM EDTA, pH8.0), and the solution was dropped on the DNA chip containing the whole genes of yeast (DNA Chip Research Inc. Japan) so that the cDNAs were hybridized on the DNA chip at 65° C. for over 12 hours. The fluoresces intensity of the DNA chip was read with a scanner, and the ratio relative to the fluorescence intensity resulting from the absence of chemical substance was estimated as the following, which is shown in Tables 1 to 9: […]

Cl[C@H]1[C@H](Cl)[C@@H](Cl)[C@@H](Cl)[C@H](Cl)[C@H]1Cl [(7), γ-hexachlorocyclohexane]
The level of expressed mRNA in the presence of chemical substance/The level of expressed mRNA in the absence of chemical substance (yeast gene YAL053W, incubated two hours with chemical substance): 0.7
The level of expressed mRNA in the presence of chemical substance/The level of expressed mRNA in the absence of chemical substance (yeast gene YBL048W): 1.9
The level of expressed mRNA in the presence of chemical substance/The level of expressed mRNA in the absence of chemical substance (yeast gene YBL107C): 2.1
The level of expressed mRNA in the presence of chemical substance/The level of expressed mRNA in the absence of chemical substance (yeast gene YDL072C, incubated two hours with chemical substance): 1.8
The level of expressed mRNA in the presence of chemical substance/The level of expressed mRNA in the absence of chemical substance (yeast gene YDL204W, incubated two hours with chemical substance): 3.2
The level of expressed mRNA in the presence of chemical substance/The level of expressed mRNA in the absence of chemical substance (yeast gene YDL222C, incubated two hours with chemical substance): 1.0
The level of expressed mRNA in the presence of chemical substance/The level of expressed mRNA in the absence of chemical substance (yeast gene YDR330W, incubated two hours with chemical substance): 1.3
The level of expressed mRNA in the presence of chemical substance/The level of expressed mRNA in the absence of chemical substance (yeast gene YDR411C, incubated two hours with chemical substance): 2.0
The level of expressed mRNA in the presence of chemical substance/The level of expressed mRNA in the absence of chemical substance (yeast gene YDR511W, incubated two hours with chemical substance): 1.5
The level of expressed mRNA in the presence of chemical substance/The level of expressed mRNA in the absence of chemical substance (yeast gene YDR545W, incubated two hours with chemical substance): 1.2
The level of expressed mRNA in the presence of chemical substance/The level of expressed mRNA in the absence of chemical substance (yeast gene YEL001C, incubated two hours with chemical substance): 1.1
The level of expressed mRNA in the presence of chemical substance/The level of expressed mRNA in the absence of chemical substance (yeast gene YER004W, incubated two hours with chemical substance): 1.4
The level of expressed mRNA in the presence of chemical substance/The level of expressed mRNA in the absence of chemical substance (yeast gene YER035W, incubated two hours with chemical substance): 1.9
The level of expressed mRNA in the presence of chemical substance/The level of expressed mRNA in the absence of chemical substance (yeast gene YER079W, incubated two hours with chemical substance): 1.9
The level of expressed mRNA in the presence of chemical substance/The level of expressed mRNA in the absence of chemical substance (yeast gene YER106W, incubated two hours with chemical substance): 1.0
The level of expressed mRNA in the presence of chemical substance/The level of expressed mRNA in the absence of chemical substance (yeast gene YER158C, incubated two hours with chemical substance): 1.2
The level of expressed mRNA in the presence of chemical substance/The level of expressed mRNA in the absence of chemical substance (yeast gene YER163C, incubated two hours with chemical substance): 1.5
The level of expressed mRNA in the presence of chemical substance/The level of expressed mRNA in the absence of chemical substance (yeast gene YER175C, incubated two hours with chemical substance): 2.3
The level of expressed mRNA in the presence of chemical substance/The level of expressed mRNA in the absence of chemical substance (yeast gene YFL006W, incubated two hours with chemical substance): 1.0
The level of expressed mRNA in the presence of chemical substance/The level of expressed mRNA in the absence of chemical substance (yeast gene YFL010C, incubated two hours with chemical substance): 1.5
The level of expressed mRNA in the presence of chemical substance/The level of expressed mRNA in the absence of chemical substance (yeast gene YFL024C): 3.3
The level of expressed mRNA in the presence of chemical substance/The level of expressed mRNA in the absence of chemical substance (yeast gene YFL032W, incubated two hours with chemical substance): 1.1
The level of expressed mRNA in the presence of chemical substance/The level of expressed mRNA in the absence of chemical substance (yeast gene YGL037C, incubated two hours with chemical substance): 2.9
The level of expressed mRNA in the presence of chemical substance/The level of expressed mRNA in the absence of chemical substance (yeast gene YGL047W, incubated two hours with chemical substance): 1.7
The level of expressed mRNA in the presence of chemical substance/The level of expressed mRNA in the absence of chemical substance (yeast gene YGL053W, incubated two hours with chemical substance): 3.7
The level of expressed mRNA in the presence of chemical substance/The level of expressed mRNA in the absence of chemical substance (yeast gene YGL121C): 4.7
The level of expressed mRNA in the presence of chemical substance/The level of expressed mRNA in the absence of chemical substance (yeast gene YGL199C, incubated two hours with chemical substance): 1.3
The level of expressed mRNA in the presence of chemical substance/The level of expressed mRNA in the absence of chemical substance (yeast gene YGR101W, incubated two hours with chemical substance): 1.5
The level of expressed mRNA in the presence of chemical substance/The level of expressed mRNA in the absence of chemical substance (yeast gene YGR110W): 1.7
The level of expressed mRNA in the presence of chemical substance/The level of expressed mRNA in the absence of chemical substance (yeast gene YGR130C, incubated two hours with chemical substance): 1.3
The level of expressed mRNA in the presence of chemical substance/The level of expressed mRNA in the absence of chemical substance (yeast gene YGR154C, incubated two hours with chemical substance): 2.0
The level of expressed mRNA in the presence of chemical substance/The level of expressed mRNA in the absence of chemical substance (yeast gene YGR221C, incubated two hours with chemical substance): 1.2
The level of expressed mRNA in the presence of chemical substance/The level of expressed mRNA in the absence of chemical substance (yeast gene YHR138C, incubated two hours with chemical substance): 3.0
The level of expressed mRNA in the presence of chemical substance/The level of expressed mRNA in the absence of chemical substance (yeast gene YHR199C, incubated two hours with chemical substance): 1.1
The level of expressed mRNA in the presence of chemical substance/The level of expressed mRNA in the absence of chemical substance (yeast gene YIL023C, incubated two hours with chemical substance): 1.2
The level of expressed mRNA in the presence of chemical substance/The level of expressed mRNA in the absence of chemical substance (yeast gene YIL041W, incubated two hours with chemical substance): 0.8
The level of expressed mRNA in the presence of chemical substance/The level of expressed mRNA in the absence of chemical substance (yeast gene YIL087C, incubated two hours with chemical substance): 1.8
The level of expressed mRNA in the presence of chemical substance/The level of expressed mRNA in the absence of chemical substance (yeast gene YJL057C, incubated two hours with chemical substance): 2.7
The level of expressed mRNA in the presence of chemical substance/The level of expressed mRNA in the absence of chemical substance (yeast gene YJL066C, incubated two hours with chemical substance): 1.6
The level of expressed mRNA in the presence of chemical substance/The level of expressed mRNA in the absence of chemical substance (yeast gene YJL082W, incubated two hours with chemical substance): 0.4
The level of expressed mRNA in the presence of chemical substance/The level of expressed mRNA in the absence of chemical substance (yeast gene YJL151C, incubated two hours with chemical substance): 1.4
The level of expressed mRNA in the presence of chemical substance/The level of expressed mRNA in the absence of chemical substance (yeast gene YJL152W, incubated two hours with chemical substance): 1.2
The level of expressed mRNA in the presence of chemical substance/The level of expressed mRNA in the absence of chemical substance (yeast gene YJL161W, incubated two hours with chemical substance): 3.6
The level of expressed mRNA in the presence of chemical substance/The level of expressed mRNA in the absence of chemical substance (yeast gene YJL171C, incubated two hours with chemical substance): 1.4
The level of expressed mRNA in the presence of chemical substance/The level of expressed mRNA in the absence of chemical substance (yeast gene YJR008W, incubated two hours with chemical substance): 2.9
The level of expressed mRNA in the presence of chemical substance/The level of expressed mRNA in the absence of chemical substance (yeast gene YJR054W, incubated two hours with chemical substance): 0.9
The level of expressed mRNA in the presence of chemical substance/The level of expressed mRNA in the absence of chemical substance (yeast gene YKL071W): 3.7
The level of expressed mRNA in the presence of chemical substance/The level of expressed mRNA in the absence of chemical substance (yeast gene YKL086W, incubated two hours with chemical substance): 0.7
The level of expressed mRNA in the presence of chemical substance/The level of expressed mRNA in the absence of chemical substance (yeast gene YKL151C, incubated two hours with chemical substance): 5.6
The level of expressed mRNA in the presence of chemical substance/The level of expressed mRNA in the absence of chemical substance (yeast gene YKL153W, incubated two hours with chemical substance): 1.1
